Measured values from patent US4045298A, “Antibiotic XK-62-2 and process for production thereof” (priority 1972, dated 1977).
Converted amounts (≈) assume the structure as drawn. Read-outs that look alike come from different tables or passages of the source.

Columns and labels:
[1] = system: Pseudomonas aeruginosa BMH No. 1; assay: In vivo protection of mice against bacterial infection; conditions: subcutaneous, inoculum 3.8×10^8 cells/mouse intraperitoneal
Procedure: In addition, the in vivo activity of XK-62-2 against pathogenic bacterial infections in mice is tested. The mice are infected with an inoculum of 3.8× 10^8 cells/mouse of Pseudomonas aeruginosa BMH No. 1 or 6.6× 10^7 cells/mouse of Pseudomonas aeruginosa KY 8510 by intraperitoneal injection. They are then treated with various doses of the test antibiotic by subcutaneous injection. The effect of XK-62-2 on the protection of the bacterial infections is shown in the following Table 8 wherein ten mice are used in each test.

[2] = system: specific enzyme system which inactivates gentamicin C1a or kanamycin by acetylating; format: biochemical, Pseudomonas aeruginosa
[3] = system: Proteus vulgaris ATCC 6897; assay: Minimum inhibitory concentration by agar dilution method; format: cell-based; conditions: ATCC6897, agar dilution
From the text: Antibacterial spectra of XK-62-2 by agar
(§1) The comparative in vitro activities of these antibiotics against various microorganisms of the genus Proteus are shown in the following Table 6.
(§2) Minimum inhibitory concentration
(§3) (γ/ml : by agar dilution method)

[4] = system: Pseudomonas aeruginosa KY 8511; assay: as above; format: cell-based; conditions: KY8511, clinical isolate, Table 7
From the text: as §2, §3

[5] = system: Pseudomonas aeruginosa KY 8510; assay: as above; format: cell-based
From the text: as §2, §3

[6] = system: Pseudomonas aeruginosa KY 8562; assay: as above; format: cell-based; conditions: KY8562, clinical isolate, Table 7
From the text: as §2, §3

[7] = system: Pseudomonas aeruginosa KY 4276; assay: as above; format: cell-based; conditions: KY4276, clinical isolate, Table 7
From the text: as §2, §3

[8] = system: Pseudomonas aeruginosa KY 8515; assay: as above; format: cell-based; conditions: KY8515, clinical isolate, Table 7
From the text: as §2, §3

[9] = system: Pseudomonas aeruginosa KY 8520; assay: as above; format: cell-based; conditions: KY8520, clinical isolate, Table 7
From the text: as §2, §3

[10] = system: Pseudomonas aeruginosa KY 8514; assay: as above; format: cell-based; conditions: KY8514, clinical isolate, Table 7
From the text: as §2, §3

[11] = system: Proteus rettgeri Hambrook; assay: as above; format: cell-based; conditions: Providencia rettgeri; agar dilution; Table 6; read-out: Minimum inhibitory concentration
From the text: as §1, §2, §3

Proteus morganii Jenkins = assay: as above; format: cell-based; conditions: Morganella morganii; agar dilution; Table 6; read-out: Minimum inhibitory concentration
From the text: as §1, §2, §3

Proteus vulgaris KY 4296 = assay: as above; format: cell-based; conditions: KY4296, Table 6
From the text: as §1, §2, §3

[12] = system: Proteus mirabilis Finland 9; assay: as above; format: cell-based; conditions: FINLAND9, agar dilution, Table 6, read-out: Minimum inhibitory concentration
From the text: as §1, §2, §3

Proteus vulgaris KY 4297 = assay: as above; format: cell-based; conditions: KY4297, Table 6
From the text: as §1, §2, §3

Proteus rettgeri Booth = assay: as above; format: cell-based; conditions: Providencia rettgeri; agar dilution; Table 6; read-out: Minimum inhibitory concentration
From the text: as §1, §2, §3

[13] = system: Proteus mirabilis No. 825; assay: as above; format: cell-based; conditions: NO.825, agar dilution, Table 6, read-out: Minimum inhibitory concentration
From the text: as §1, §2, §3

[14] = system: Proteus vulgaris Abbott JJ; assay: as above; format: cell-based; conditions: agar dilution, Table 6, read-out: Minimum inhibitory concentration
From the text: as §1, §2, §3

Proteus mirabilis No. 39 = assay: as above; format: cell-based; conditions: NO.39, agar dilution, Table 6, read-out: Minimum inhibitory concentration
From the text: as §1, §2, §3

Solubility = format: physicochemical
Proteus mirabilis 1287 = assay: In vivo activity against pathogenic bacterial infections in mice
From the text: (§4) The in vivo activity of XK-62-2 against pathogenic bacterial infections in mice is further tested using various Gram-positive and Gram-negative bacteria. The mice are infected with an inoculum of the bacteria by intraperitonial injection and then treated with the test antibiotic by subcutaneous injection.

[15] = system: Klebsiella pneumoniae No. 8045; assay: as above
From the text: as §4

[16] = system: Diplococcus pneumoniae III; assay: as above
From the text: as §4

[17] = system: Streptococcus pyogenes S23; assay: as above
From the text: as §4

[18] = system: Staphylococcus aureus Smith; assay: as above
From the text: as §4

[19] = system: Escherichia coli GN 2411-5; assay: as above
From the text: as §4

[20] = system: Pseudomonas aeruginosa KY 8510; assay: In vivo protection of mice against bacterial infection; conditions: subcutaneous, inoculum 6.6×10^7 cells/mouse intraperitoneal
Procedure: In addition, the in vivo activity of XK-62-2 against pathogenic bacterial infections in mice is tested. […] They are then treated with various doses of the test antibiotic by subcutaneous injection.

CNC[C@@H]1CC[C@@H](N)[C@@H](O[C@H]2[C@H](O)[C@@H](O[C@H]3OC[C@](C)(O)[C@H](NC)[C@H]3O)[C@H](N)C[C@@H]2N)O1 [XK-62-2]
Survival of mice ([1]; 0.125 mg/mouse): 0% | Survival of mice ([1]; 0.25 mg/mouse): 10% | Survival of mice ([1]; 0.5 mg/mouse): 50% | Survival of mice ([1]; 1 mg/mouse): 90% | Survival of mice ([1]; 2 mg/mouse): 100% | Inactivation by acetylation (6'-NH2) [2]: free from acetylation | MIC ([3]; Table 5, read-out: Minimum inhibitory concentration): 0.03 mg/L (≈ 0.0647 µM) | MIC ([3]; Table 6, read-out: Minimum inhibitory concentration): 0.04 mg/L (≈ 0.0863 µM) | MIC [4]: > 42 mg/L | Susceptibility of strain ([5]; KY 8510): sensitive | MIC ([5]; Pseudomonas aeruginosa, KY8510, agar dilution, clinical isolate, Table 7): 0.33 mg/L (≈ 0.712 µM) | Antibacterial activity relative to gentamicin complex or gentamicin C1a ([5]; vs gentamicin complex or gentamicin C1a): much higher antibacterial activity | MIC [6]: > 42 mg/L | MIC [7]: 0.33 mg/L (≈ 0.712 µM) | MIC [8]: > 42 mg/L | MIC [9]: 0.33 mg/L (≈ 0.712 µM) | MIC [10]: 0.55 mg/L (≈ 1.19 µM) | MIC [11]: 0.021 mg/L (≈ 0.0453 µM) | MIC (Proteus morganii Jenkins): 0.04 mg/L (≈ 0.0863 µM) | MIC (Proteus vulgaris KY 4296): 0.021 mg/L (≈ 0.0453 µM) | MIC [12]: 0.04 mg/L (≈ 0.0863 µM) | MIC (Proteus vulgaris KY 4297): 0.021 mg/L (≈ 0.0453 µM) | MIC (Proteus rettgeri Booth): 0.021 mg/L (≈ 0.0453 µM) | MIC [13]: 0.021 mg/L (≈ 0.0453 µM) | MIC [14]: 0.021 mg/L (≈ 0.0453 µM) | MIC (Proteus mirabilis No. 39): 0.021 mg/L (≈ 0.0453 µM) | Solubility in acetone (Solubility; acetone): soluble | Solubility in chloroform, benzene, ethyl acetate, butyl acetate, ether, butanol, petroleum ether, n-hexane (Solubility; chloroform, benzene, ethyl acetate, butyl acetate, ether, butanol, petroleum ether, n-hexane, etc.): insoluble | Solubility in ethanol (Solubility; ethanol): soluble | Solubility in methanol (Solubility; methanol): soluble | Solubility in ordinary organic solvents (Solubility; ordinary organic solvents): poorly soluble | Solubility in water (Solubility; water): very soluble | ED50 (Proteus mirabilis 1287; Proteus mirabilis, 1287, sc, subcutaneous, challenge inoculum 1.8×10^8 cells/mouse, read-out: Median effective dose [ED50]): 10.4 ± 4.4 mg/kg | Ratio XK-62-2/gentamicin complex (Proteus mirabilis 1287; ratio of ED50): 0.97 | ED50 ([15]; Klebsiella pneumoniae, NO.8045, sc, subcutaneous, challenge inoculum 1.4×10^8 cells/mouse, read-out: Median effective dose [ED50]): 5.7 ± 1.4 mg/kg | Ratio XK-62-2/gentamicin complex ([15]; ratio of ED50): 0.74 | ED50 ([16]; Streptococcus pneumoniae, sc, subcutaneous, challenge inoculum 4.4×10^3 cells/mouse, read-out: Median effective dose [ED50]): 6.6 ± 1.9 mg/kg | Ratio XK-62-2/gentamicin complex ([16]; ratio of ED50): 0.86 | ED50 ([17]; Streptococcus pyogenes, S23, sc, subcutaneous, challenge inoculum 2.7×10^7 cells/mouse, read-out: Median effective dose [ED50]): 17.7 ± 4.8 mg/kg | Ratio XK-62-2/gentamicin complex ([17]; ratio of ED50): 1.50 | ED50 ([18]; Staphylococcus aureus, sc, subcutaneous, challenge inoculum 1.8×10^8 cells/mouse, read-out: Median effective dose [ED50]): 0.28 ± 0.04 mg/kg | Ratio XK-62-2/gentamicin complex ([18]; ratio of ED50): 1.33 | ED50 ([19]; Escherichia coli, GN2411, sc, subcutaneous, challenge inoculum 3.6×10^6 cells/mouse, read-out: Median effective dose [ED50]): 10.8 ± 4.1 mg/kg | Ratio XK-62-2/gentamicin complex ([19]; ratio of ED50): 1.01 | Survival of mice ([20]; 0.125 mg/mouse): 0% | Survival of mice ([20]; 0.25 mg/mouse): 30% | Survival of mice ([20]; 0.5 mg/mouse): 50% | Survival of mice ([20]; 1 mg/mouse): 80% | Survival of mice ([20]; 2 mg/mouse): 100%
